Data published in the supplement of paper PMC9663587.

Experiments:
THZ1 = compound: CN(C)C/C=C/C(=O)Nc1ccc(C(=O)Nc2cccc(Nc3ncc(Cl)c(-c4c[nH]c5ccccc45)n3)c2)cc1 [THZ1]; assay: GR value, 72 h; higher = faster growth (1 = untreated, <0 = killing);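 also: breast cancer and non-malignant breast epithelial lines, nine half-log doses, viable cells counted by Hoechst and LIVE/DEAD dye imaging versus time-zero plates and DMSO controls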
YKL-5-124 = compound: C=CC(=O)Nc1ccc(C(=O)Nc2[nH]nc3c2CN(C(=O)N[C@H](CN(C)C)c2ccccc2)C3(C)C)cc1 [YKL-5-124]; assay: as above
[1] = compound: CCN1CCN(Cc2ccc(Nc3ncc(F)c(-c4cc(F)c5nc(C)n(C(C)C)c5c4)n3)nc2)CC1; assay: as above
Neratinib/HKI272 = compound: CCOc1cc2ncc(C#N)c(Nc3ccc(OCc4ccccn4)c(Cl)c3)c2cc1NC(=O)/C=C/CN(C)C [Neratinib/HKI272]; assay: as above
[2] = compound: CC(=O)c1c(C)c2cnc(Nc3ccc(N4CCNCC4)cn3)nc2n(C2CCCC2)c1=O; assay: as above
LEE011/Ribociclib = compound: CN(C)C(=O)c1cc2cnc(Nc3ccc(N4CCNCC4)cn3)nc2n1C1CCCC1 [LEE011/Ribociclib]; assay: as above
BSJ-03-123 = compound: CC(=O)c1c(C)c2cnc(Nc3ccc(N4CCN(CCOCCOCCOCCNC(=O)COc5cccc6c5C(=O)N(C5CCC(=O)NC5=O)C6=O)CC4)cn3)nc2n(C2CCCC2)c1=O [BSJ-03-123]; assay: as above
Flavopiridol [3] = compound: T1, CN1CC[C@H](c2c(O)cc(O)c3c(=O)cc(-c4ccccc4Cl)oc23)[C@H](O)C1 [Flavopiridol]; assay: as above
THZ531 = compound: CN(C)C/C=C/C(=O)Nc1ccc(C(=O)N2CCC[C@@H](Nc3ncc(Cl)c(-c4c[nH]c5ccccc45)n3)C2)cc1 [THZ531]; assay: as above
[4] = compound: CCc1cnn2c(NCc3ccc[n+]([O-])c3)cc(N3CCCC[C@H]3CCO)nc12; assay: as above
ABT-737 = compound: CN(C)CC[C@H](CSc1ccccc1)Nc1ccc(S(=O)(=O)NC(=O)c2ccc(N3CCN(Cc4ccccc4-c4ccc(Cl)cc4)CC3)cc2)cc1[N+](=O)[O-] [ABT-737]
Saracatinib/AZD0530 = compound: CN1CCN(CCOc2cc(OC3CCOCC3)c3c(Nc4c(Cl)ccc5c4OCO5)ncnc3c2)CC1 [Saracatinib/AZD0530]
Flavopiridol [5] = compound: T1, Flavopiridol
Taselisib/GDC0032 = compound: Cc1nc(-c2cn3c(n2)-c2ccc(-c4cnn(C(C)(C)C(N)=O)c4)cc2OCC3)n(C(C)C)n1 [Taselisib/GDC0032]
[6] = compound: CO[C@@H](C)Cn1c(=O)n(C)c2cnc3ccc(-c4cncc(C(C)(C)O)c4)cc3c21
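For GR50, 72 h in this document: breast cancer and non-malignant breast epithelial cell lines, Deep Dye Drop or Dye Drop imaging, nine half-log doses, GR normalized to time-zero plates and DMSO-only controls.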

ZR7530
GR value (THZ1; 0.0001 µM): 0.924 GR
GR value (THZ1; 0.0003162 µM): 1.19 GR
GR value (THZ1; 0.001 µM): 1.07 GR
GR value (THZ1; 0.003162 µM): 0.851 GR
GR value (THZ1; 0.01 µM): 0.985 GR
GR value (THZ1; 0.03162 µM): 0.289 GR
GR value (THZ1; 0.1 µM): -0.492 GR
GR value (THZ1; 0.3162 µM): -0.524 GR
GR value (THZ1; 1 µM): -0.638 GR
GR value (YKL-5-124; 0.001 µM): 0.344 GR
GR value (YKL-5-124; 0.003162 µM): 0.254 GR
GR value (YKL-5-124; 0.01 µM): 0.245 GR
GR value (YKL-5-124; 0.03162 µM): 0.309 GR
GR value (YKL-5-124; 0.1 µM): 0.197 GR
GR value (YKL-5-124; 0.3162 µM): 0.138 GR
GR value (YKL-5-124; 1 µM): 0.176 GR
GR value (YKL-5-124; 3.162 µM): 0.177 GR
GR value (YKL-5-124; 10 µM): -0.625 GR
GR value ([1]; 0.001 µM): 1.05 GR
GR value ([1]; 0.003162 µM): 1.03 GR
GR value ([1]; 0.01 µM): 0.769 GR
GR value ([1]; 0.03162 µM): 0.57 GR
GR value ([1]; 0.1 µM): 0.322 GR
GR value ([1]; 0.3162 µM): 0.276 GR
GR value ([1]; 1 µM): 0.282 GR
GR value ([1]; 3.162 µM): 0.229 GR
GR value ([1]; 10 µM): 0.127 GR
GR value (Neratinib/HKI272; 0.0003162 µM): 0.699 GR
GR value (Neratinib/HKI272; 0.001 µM): 0.374 GR
GR value (Neratinib/HKI272; 0.003162 µM): 0.0338 GR
GR value (Neratinib/HKI272; 0.01 µM): -0.0663 GR
GR value (Neratinib/HKI272; 0.03162 µM): -0.199 GR
GR value (Neratinib/HKI272; 0.1 µM): -0.22 GR
GR value (Neratinib/HKI272; 0.3162 µM): -0.262 GR
GR value (Neratinib/HKI272; 1 µM): -0.411 GR
GR value (Neratinib/HKI272; 3.162 µM): -0.497 GR
GR value ([2]; 0.0003162 µM): 1.08 GR
GR value ([2]; 0.001 µM): 1.08 GR
GR value ([2]; 0.003162 µM): 1.06 GR
GR value ([2]; 0.01 µM): 0.858 GR
GR value ([2]; 0.03162 µM): 0.665 GR
GR value ([2]; 0.1 µM): 0.482 GR
GR value ([2]; 0.3162 µM): 0.321 GR
GR value ([2]; 1 µM): 0.451 GR
GR value ([2]; 3.162 µM): 0.253 GR
GR value (LEE011/Ribociclib; 0.001 µM): 0.854 GR
GR value (LEE011/Ribociclib; 0.003162 µM): 0.695 GR
GR value (LEE011/Ribociclib; 0.01 µM): 0.687 GR
GR value (LEE011/Ribociclib; 0.03162 µM): 0.857 GR
GR value (LEE011/Ribociclib; 0.1 µM): 0.607 GR
GR value (LEE011/Ribociclib; 0.3162 µM): 0.463 GR
GR value (LEE011/Ribociclib; 1 µM): 0.434 GR
GR value (LEE011/Ribociclib; 3.162 µM): 0.443 GR
GR value (LEE011/Ribociclib; 10 µM): 0.41 GR
GR value (BSJ-03-123; 0.001 µM): 0.784 GR
GR value (BSJ-03-123; 0.003162 µM): 0.857 GR
GR value (BSJ-03-123; 0.01 µM): 0.824 GR
GR value (BSJ-03-123; 0.03162 µM): 0.72 GR
GR value (BSJ-03-123; 0.1 µM): 0.835 GR
GR value (BSJ-03-123; 0.3162 µM): 0.615 GR
GR value (BSJ-03-123; 1 µM): 0.398 GR
GR value (BSJ-03-123; 3.162 µM): 0.395 GR
GR value (BSJ-03-123; 10 µM): -0.258 GR
GR value (Flavopiridol [3]; 0.0001 µM): 1.03 GR
GR value (Flavopiridol [3]; 0.0003162 µM): 1.14 GR
GR value (Flavopiridol [3]; 0.001 µM): 1.04 GR
GR value (Flavopiridol [3]; 0.003162 µM): 0.795 GR
GR value (Flavopiridol [3]; 0.01 µM): 0.93 GR
GR value (Flavopiridol [3]; 0.03162 µM): 1.13 GR
GR value (Flavopiridol [3]; 0.1 µM): 0.766 GR
GR value (Flavopiridol [3]; 0.3162 µM): 0.119 GR
GR value (Flavopiridol [3]; 1 µM): -0.662 GR
GR value (THZ531; 0.0001 µM): 0.959 GR
GR value (THZ531; 0.0003162 µM): 1.15 GR
GR value (THZ531; 0.001 µM): 0.926 GR
GR value (THZ531; 0.003162 µM): 0.99 GR
GR value (THZ531; 0.01 µM): 1.02 GR
GR value (THZ531; 0.03162 µM): 0.98 GR
GR value (THZ531; 0.1 µM): -0.379 GR
GR value (THZ531; 0.3162 µM): -0.732 GR
GR value (THZ531; 1 µM): -0.42 GR
GR value ([4]; 0.0001 µM): 0.895 GR
GR value ([4]; 0.0003162 µM): 0.995 GR
GR value ([4]; 0.001 µM): 1.06 GR
GR value ([4]; 0.003162 µM): 0.953 GR
GR value ([4]; 0.01 µM): 0.909 GR
GR value ([4]; 0.03162 µM): -0.42 GR
GR value ([4]; 0.1 µM): -0.601 GR
GR value ([4]; 0.3162 µM): -0.696 GR
GR value ([4]; 1 µM): -0.728 GR
GR50, 72 h (ABT-737): > 10 µM
GR50, 72 h (Saracatinib/AZD0530): 0.533 µM
GR50, 72 h (Flavopiridol [5]): 0.192 µM
GR50, 72 h (Taselisib/GDC0032): 0.0102 µM

MCF10A (GM)
GR value (THZ1; 0.0001 µM): 0.997 GR
GR value (THZ1; 0.0003162 µM): 0.998 GR
GR value (THZ1; 0.001 µM): 0.986 GR
GR value (THZ1; 0.003162 µM): 0.993 GR
GR value (THZ1; 0.01 µM): 0.898 GR
GR value (THZ1; 0.03162 µM): 0.539 GR
GR value (THZ1; 0.1 µM): 0.23 GR
GR value (THZ1; 0.3162 µM): 0.0499 GR
GR value (THZ1; 1 µM): -0.285 GR
GR value (YKL-5-124; 0.001 µM): 0.327 GR
GR value (YKL-5-124; 0.003162 µM): 0.118 GR
GR value (YKL-5-124; 0.01 µM): 0.0291 GR
GR value (YKL-5-124; 0.03162 µM): 0.0039 GR
GR value (YKL-5-124; 0.1 µM): 0.0039 GR
GR value (YKL-5-124; 0.3162 µM): -0.0162 GR
GR value (YKL-5-124; 1 µM): -0.0398 GR
GR value (YKL-5-124; 3.162 µM): -0.0468 GR
GR value (YKL-5-124; 10 µM): -0.141 GR
GR value (LEE011/Ribociclib; 0.001 µM): 0.925 GR
GR value (LEE011/Ribociclib; 0.003162 µM): 0.95 GR
GR value (LEE011/Ribociclib; 0.01 µM): 0.906 GR
GR value (LEE011/Ribociclib; 0.03162 µM): 0.892 GR
GR value (LEE011/Ribociclib; 0.1 µM): 0.859 GR
GR value (LEE011/Ribociclib; 0.3162 µM): 0.823 GR
GR value (LEE011/Ribociclib; 1 µM): 0.808 GR
GR value (LEE011/Ribociclib; 3.162 µM): 0.736 GR
GR value (LEE011/Ribociclib; 10 µM): 0.525 GR
GR value (BSJ-03-123; 0.001 µM): 0.904 GR
GR value (BSJ-03-123; 0.003162 µM): 0.952 GR
GR value (BSJ-03-123; 0.01 µM): 0.879 GR
GR value (BSJ-03-123; 0.03162 µM): 0.859 GR
GR value (BSJ-03-123; 0.1 µM): 0.884 GR
GR value (BSJ-03-123; 0.3162 µM): 0.795 GR
GR value (BSJ-03-123; 1 µM): 0.658 GR
GR value (BSJ-03-123; 3.162 µM): 0.549 GR
GR value (BSJ-03-123; 10 µM): -0.17 GR
GR value (Flavopiridol [3]; 0.0001 µM): 1 GR
GR value (Flavopiridol [3]; 0.0003162 µM): 1.01 GR
GR value (Flavopiridol [3]; 0.001 µM): 1.01 GR
GR value (Flavopiridol [3]; 0.003162 µM): 0.996 GR
GR value (Flavopiridol [3]; 0.01 µM): 0.962 GR
GR value (Flavopiridol [3]; 0.03162 µM): 0.842 GR
GR value (Flavopiridol [3]; 0.1 µM): 0.557 GR
GR value (Flavopiridol [3]; 0.3162 µM): -0.244 GR
GR value (Flavopiridol [3]; 1 µM): -0.319 GR
GR value (THZ531; 0.0001 µM): 1 GR
GR value (THZ531; 0.0003162 µM): 1 GR
GR value (THZ531; 0.001 µM): 0.992 GR
GR value (THZ531; 0.003162 µM): 0.983 GR
GR value (THZ531; 0.01 µM): 0.997 GR
GR value (THZ531; 0.03162 µM): 0.974 GR
GR value (THZ531; 0.1 µM): 0.926 GR
GR value (THZ531; 0.3162 µM): 0.707 GR
GR value (THZ531; 1 µM): -0.276 GR
GR50, 72 h (Flavopiridol [5]): 0.101 µM
GR50, 72 h [6]: 0.00578 µM
